Here are results for eight compounds from patent US11548875B2, “Inhibitor compounds for male contraception” (University of Washington, priority 2018, dated 2023).

The target of one assay is T1, ALDH2 (Homo sapiens, UniProt P05091).
T1 construct: histidine-tag (N); made in house; host or cells: bacterial expression (pETite vector, IPTG induction)
T1 sequence (P05091 18-517): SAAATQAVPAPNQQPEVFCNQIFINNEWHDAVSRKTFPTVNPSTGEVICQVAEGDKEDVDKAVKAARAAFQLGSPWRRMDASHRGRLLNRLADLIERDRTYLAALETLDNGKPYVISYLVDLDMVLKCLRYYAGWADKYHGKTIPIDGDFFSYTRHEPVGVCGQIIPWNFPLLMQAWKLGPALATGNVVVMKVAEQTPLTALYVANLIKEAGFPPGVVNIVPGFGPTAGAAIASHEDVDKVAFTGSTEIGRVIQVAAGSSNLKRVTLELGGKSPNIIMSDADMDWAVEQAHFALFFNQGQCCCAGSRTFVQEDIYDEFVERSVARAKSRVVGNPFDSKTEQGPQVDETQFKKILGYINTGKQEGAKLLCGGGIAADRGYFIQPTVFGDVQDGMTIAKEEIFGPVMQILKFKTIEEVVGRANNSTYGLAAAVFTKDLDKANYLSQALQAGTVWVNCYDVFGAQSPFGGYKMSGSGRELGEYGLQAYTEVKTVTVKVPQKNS
The assay is described as follows: Purified ALDH2 assay with propanal, NADH fluorescence. The assay is classed as biochemical. The following applies: purified enzyme. In short, it runs like this: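 His-tagged human ALDH2 expressed in bacteria and purified. 2 μg enzyme incubated with 20 μM propanal and varying inhibitor concentrations at room temperature. Activity read as NADH fluorescence (Ex 350/Em 460 nm), with initial velocity from two consecutive readings over 1 minute.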

The next assay deals with T2, ALDH1A2 (Homo sapiens, UniProt O94788).
T2 sequence (O94788 1-518): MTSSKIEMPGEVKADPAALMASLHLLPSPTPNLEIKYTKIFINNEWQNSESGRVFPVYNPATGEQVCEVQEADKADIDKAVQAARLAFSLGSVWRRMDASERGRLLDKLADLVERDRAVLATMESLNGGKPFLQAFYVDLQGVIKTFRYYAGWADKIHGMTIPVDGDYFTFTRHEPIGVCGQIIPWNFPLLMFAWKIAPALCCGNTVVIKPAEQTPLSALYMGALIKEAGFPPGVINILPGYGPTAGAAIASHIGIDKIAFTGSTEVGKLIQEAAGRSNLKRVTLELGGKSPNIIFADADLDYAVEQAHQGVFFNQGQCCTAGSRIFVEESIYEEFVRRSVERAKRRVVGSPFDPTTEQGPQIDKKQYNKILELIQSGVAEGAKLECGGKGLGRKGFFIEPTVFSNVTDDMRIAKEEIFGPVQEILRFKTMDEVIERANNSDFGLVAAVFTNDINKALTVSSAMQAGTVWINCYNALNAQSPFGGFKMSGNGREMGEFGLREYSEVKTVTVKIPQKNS
The assay is described as follows: Inhibitor screening using purified enzymes: ALDH1A2 activity, retinoic acid production by HPLC (5 uM initial screen, then IC50). The assay is classed as biochemical. On the set-up: histidine-tag (C); made in house; host or cells: bacterial expression (pET28 vector, IPTG induction). The following applies: purified enzyme. In short, it runs like this: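 Purified His-tagged human enzymes in 10 mM HEPES pH 8.0, 150 mM KCl, 2 mM EDTA with 2 mM NAD, all-trans-retinal substrate; retinoic acid quantified by HPLC. ALDH1A2 initial screen: 1 μg enzyme, 5 μM retinal, 5 μM inhibitor, 15 min, 37° C; IC50 runs: 0.5 μg enzyme, 0.5 μg retinal, 5 min, 37° C.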

Where a name gives a salt, the structure may show the parent alone.

The term IC50 denotes the point on the concentration scale where inhibition reaches its midpoint. High values mean weaker potency, low ones greater potency. Consider `CS(=O)(=O)c1ccc(-c2nn(-c3ccccc3)cc2C(=O)Nc2cccc(O)c2)cc1` [Compound 211, 3-(4-(Methylsulfonyl)phenyl)-N-(3-hydroxyphenyl)-1-phenyl-1H-pyrazole-4-carboxamide], for which the figures for the IC50 at ALDH2 and at ALDH1A2 were 15.5 µM and 0.081 µM, respectively.

In the case of `CN(C)c1ccc(C(=O)N2CCN(c3ccc([N+](=O)[O-])c(N4CCCC4)c3)CC2)cc1` [Compound 346, 4-Dimethylaminophenyl-1-{4-[4-nitro-3-(pyrrolidin-1-yl)phenyl]piperazin-1-yl}methanone], the half-inhibitory concentration (IC50) against ALDH2 is more than 100 µM; on ALDH1A2, 5.69 µM.

Consider `CCc1ccc(C(=O)N2CCN(c3ccc([N+](=O)[O-])c(N4CCCC4)c3)CC2)s1` [Compound 323, {4-[4-Nitro-3-(pyrrolidin-1-yl)phenyl]piperazin-1-yl}(5-ethylthiophen-2-yl)methanone], for which the IC50 against ALDH2 stood at 52 µM; at ALDH1A2, 0.103 µM.

For the compound “3-{4-[(Chloroacetyl)amino]phenyl}-N-(3-fluorophenyl)-1-phenyl-1H-pyrazole-4-carboxamide [Compound 294]”, the IC50 at ALDH2 was 24.4 µM; at ALDH1A2 it was 0.025 µM.

On to `CCOc1ccsc1C(=O)N1CCN(c2ccc([N+](=O)[O-])c(N3CCCC3)c2)CC1` [Compound 326, {4-[4-Nitro-3-(pyrrolidin-1-yl)phenyl]piperazin-1-yl}(3-ethoxythiophen-2-yl)methanone], for which the results for the concentration for half-maximal inhibition (IC50) at ALDH2 and at ALDH1A2 were 97.3 µM and 0.058 µM, respectively.

As for `Nc1ccsc1C(=O)N1CCN(c2ccc([N+](=O)[O-])c(N3CCCC3)c2)CC1` [Compound 331, {4-[4-Nitro-3-(pyrrolidin-1-yl)phenyl]piperazin-1-yl}(3-aminothiophen-2-yl)methanone hydrochloride], the IC50 on ALDH2 was 24.9 µM; on ALDH1A2, 0.062 µM.

With `CS(=O)(=O)c1ccc(-c2nn(-c3ccccc3)cc2C(=O)Nc2cccc(F)c2O)cc1` [Compound 231, N-(3-Fluoro-2-hydroxyphenyl)-3-[4-(methylsulfonyl)phenyl]-1-phenyl-1H-pyrazole-4-carboxamide], the figures for the IC50 on ALDH2 and against ALDH1A2 were 67.3 µM and 0.323 µM, respectively.

For the compound `Cn1cccc1C(=O)N1CCN(c2ccc(NC(=O)C(Cl)Cl)c(N3CCCC3)c2)CC1` [Compound 367, 1-[4-(4-N-Dichloroacetyl-3-(pyrrolidin-1-yl)phenyl]piperazin-1-yl](1-methyl-1H-pyrrol-2-yl)methanone], the IC50 was more than 80 µM against ALDH2 and 2.3 µM at ALDH1A2.
